Experimental findings from patent US20220226397A1, “SYNERGISTIC COMBINATIONS OF ARGININE-PRODUCING BACTERIA AND/OR AMMONIA-CONSUMING BACTERIA AND CHECKPOINT INHIBITORS AND METHODS OF USE THEREOF” (Synlogic Operating Company, Inc., priority 2019, published 2022) are described below.

The structures appear in SMILES notation.

This assay deals with MC38 tumors. As to the kind of experiment: MC38 tumor growth and survival, oral L-arginine with or without αPD-L1. The assay is classed as in vivo, C57BL/6 WT mice. As to conditions: s.c. MC38; L-arginine 2 g/kg oral gavage daily; αPD-L1 200 μg i.p. every second day; compared to control group. Here is the method:
FIGS. 1A, 1B, and 1C: 5×10^5 MC38 colon adenocarcinoma cells were injected s.c. in C57BL/6 WT mice and tumors were allowed to grow for 11 days before treatments were initiated. Control mice (n=13) received daily an oral gavage of H2O (100 μl) and every second day 200 μl of PBS i.p. The L-arginine group received daily an oral gavage of L-arginine (2 g/kg body weight in 100 μl) (n=19). The PD-L1 group received 200 μg of αPD-L1 mAb i.p. every second day (n=16). The Combo group received L-arginine (oral) and αPD-L1 (i.p.) (n=17). FIG. 1A depicts in vivo MC38 tumor growth (number of mice are indicated in the graph). Values represent mean tumor volume +/− SEM. FIG. 1C: Survival curves of different groups of mice. P values were determined by log-rank comparisons between the curves. FIG. 1B provide tumor growth curves of individual mice. P values were determined by two way ANOVA. *P<0.05, **P<0.01, ***P<0.001, ****P<0.0001, throughout.
MC38 murine colon adenocarcinoma cells were cultured in RPMI 1640 plus 10% heat-inactivated FCS, 1 mM Na-Pyruvate and 50 μM β-mercaptoethanol. Female C57BL/6 mice between the ages of 5 to 10 weeks were implanted with the MC38 cells. […] The size of tumors was measured in a blinded fashion using calipers. […] Tumors were collected, digested and tumor-infiltrating lymphocytes (TILs) were analyzed by flow cytometry.

For `N=C(N)NCCC[C@H](N)C(=O)O` [L-arginine], the MC38 tumor growth entry was “slightly reduced”.
